Experimental data taken from patent publication US20260042764A1, “COMPOSITIONS AND METHODS FOR INHIBITION OF KRAS” (TheRas, Inc., priority 2022, published 2026).

Experiments:
[1] = system: Capan-2 cells (KRAS G12V); test: Cell-based pERK HTRF assay in Capan-2 cells (Biological Example 5)
Experimental: (§1) Biological Example 5: Cell-based PERK HTRF assay in AsPC-1, SW1900, HPAC, Capan-2, RKN, H358, HCT116, KP-2, H1573, A549, MKN1, and HT1080 cells
(§2) The inhibition of ERK phosphorylation, as measured using the HTRF Advanced Phospho-ERK 1/2 (Thr202/Tyr204) Detection Assay kit (Perkin Elmer), was used to determine the effectiveness of test compounds in disrupting KRAS-driven protein/effector signaling in cells.
(§3) On day 1, cells were seeded into 96-well plates at 2.5×10^4 cells/well in 100 μL of complete growth media supplemented with 10% fetal bovine serum (FBS) and incubated at 37° C., in the presence of 5% CO2.
(§4) On day 2, cells were treated with compounds diluted in DMSO at 0.25% final DMSO concentration. Compounds were dosed in a 9-point concentration curve with three-fold dilution between concentrations. Cells were incubated in the presence of compound for two hours at 37° C. Following this treatment period, cells were harvested by aspirating the media, adding 40 μL of kit-supplied 1x lysis buffer per well, and shaking for 30 minutes at 250 rpm at room temperature.
(§5) Following cell lysis, samples were homogenized by pipetting up and down twenty times and 16 μL of cell lysate per well was transferred from the 96-well cell culture plate to two wells of a 384-well detection plate. A complete detection buffer was prepared by diluting D2 and Eu Cryptate antibodies 1:20 in kit-provided detection solution, 4 μL of complete detection buffer was then added to each well with lysate. Plates were incubated with gentle rocking for 24 hours at 4° C.
(§6) Following this incubation period, plates were centrifuged at 500×g for one minute and analyzed on a CLARIOstar plate reader. Data was imported into Microsoft Excel and the signal from the 665 nm channel was divided by the signal from the 620 nm channel. % pERK was calculated as: […]
(§7) Data was imported to the Prism software package (Graphpad) and EC50 values were calculated using the log (inhibitor) vs, response—variable slopc (Four parameters) model.

[2] = system: MKN1 cells (KRAS amplification); test: Cell-based pERK HTRF assay in MKN1 cells (Biological Example 5)
Experimental: as §1, §2, §3, §4, §5, §6, §7

AsPC-1 cells (KRAS G12D) = test: 3D Cell viability assay in AsPC-1 cells (Biological Example 6); assay type: cell-based; conditions: AsPC-1 (KRAS G12D) spheroids, 72 hours
Experimental: (§8) Biological Example 6: 3D Cell viability assay in AsPC-1, SW1900, HPAC, Capan-2, RKN, H358, HCT116, KP-2, H1573, A549, MKN1, and HT1080 cells
(§9) The inhibition of cellular viability as a result of test compound treatment in a spheroid assay was measured using the CellTiter-Glow 3D Cell Viability Assay (Promega).
(§10) On Day 1, 1000 cells per well were seeded in 150 μL of complete growth media supplemented with 10% fetal bovine serum (FBS) and incubated at 37° C., in the presence of 5% CO2 in 96-well ultra-low attachment microplates (Corning) for 48 hours undisturbed to allow spheroids to form.
(§11) Following spheroid formation, cells were treated with compounds diluted in DMSO at 0.25% final DMSO concentration. Compounds were dosed in a 9-point concentration curve with three-fold dilution between concentrations. Cells were incubated in the presence of compound for 72 hours at 37° C., in the presence of 5% CO2.
(§12) Following this incubation period, the kit-provided CTG reagent was allowed to equilibrate for 30 minutes at room temperature, 150 μL of equilibrated CTG reagent was added to each well, and the plate was sealed before shaking at 250 rpm for 10 minutes at room temperature to lyse the cells, 150 μL of lysate per well was transferred to a 96-well plate and luminescence was read on a CLARIOstar plate reader.
(§13) Data was imported into the Prism software package (Graphpad) and EC50 values were calculated using the log (inhibitor) vs, response—variable slope (Four parameters) model.

H358 cells (KRAS G12C) = test: 3D Cell viability assay in H358 cells (Biological Example 6); assay type: cell-based; conditions: H358 (KRAS G12C) spheroids, 72 hours
Experimental: as §8, §9, §10, §11, §12, §13

[3] = system: MKN1 cells (KRAS amplification); test: 3D Cell viability assay in MKN1 cells (Biological Example 6); assay type: cell-based; conditions: MKN (MKN1, KRAS amplification) spheroids, 72 hours
Experimental: as §8, §9, §10, §11, §12, §13

[4] = Homo sapiens, Capan-2, Capan-2 (KRAS G12V) cells
[5] = Homo sapiens, MKN-1, MKN cells (MKN1, KRAS amplification)
[6] = MKN cells (MKN1, KRAS amplification)

Row | SMILES | IC50 [1, 4] [µM] | IC50 [2, 5] [µM] | IC50 (AsPC-1 cells (KRAS G12D); Homo sapiens, ASPC1) [µM] | IC50 (H358 cells (KRAS G12C); Homo sapiens, NCI-H358) [µM] | IC50 ([3]; Homo sapiens, MKN-1) [µM] | IC50 ([1]; Capan-2 (KRAS G12V) cells) [µM] | IC50 [2, 6] [µM] | IC50 (AsPC-1 cells (KRAS G12D)) [µM] | IC50 (H358 cells (KRAS G12C)) [µM] | IC50 [3] [µM]
1 | CCN(c1nc(OC[C@@]23CCCN2C[C@H](F)C3)nc2c(F)c(-c3ccc(F)c4sc(N)c(C#N)c34)c(C(F)(F)F)cc12)[C@H]1CCN(C(=O)C2CC2)[C@@H]1C (atropisomer, axis not shown) [Compound 579] | ≤ 0.1 | ≤ 0.1 | ≤ 0.1 | ≤ 0.1 | ≤ 0.1 |  |  |  |  | 
2 | CCN(c1nc(OC[C@@]23CCCN2C[C@H](F)C3)nc2c(F)c(-c3ccc(F)c4sc(N)c(C#N)c34)c(C(F)(F)F)cc12)[C@H]1CCN(C(=O)c2ncco2)C1 (atropisomer, axis not shown) [Compound 584] | ≤ 0.1 | ≤ 0.1 | ≤ 0.1 | ≤ 0.1 | ≤ 0.1 |  |  |  |  | 
3 | CCN(c1nc(OC[C@@]23CCCN2C[C@H](F)C3)nc2c(F)c(-c3ccc(F)c4sc(N)c(C#N)c34)c(C(F)(F)F)cc12)[C@H]1C[C@@H](C)N(C(=O)C2COC2)C1 (atropisomer, axis not shown) [Compound 586] | ≤ 0.1 | ≤ 0.1 | ≤ 0.1 | ≤ 0.1 | ≤ 0.1 |  |  |  |  | 
4 | CCN(c1nc(OC[C@@]23CCCN2C[C@H](F)C3)nc2c(F)c(-c3ccc(F)c4sc(N)c(C#N)c34)c(C(F)(F)F)cc12)[C@H]1C[C@H](C)N(C(=O)[C@@H]2CC2(F)F)C1 (atropisomer, axis not shown) [Compound 751] | ≤ 0.1 | ≤ 0.1 | ≤ 0.1 | ≤ 0.1 | ≤ 0.1 |  |  |  |  | 
5 | Cc1c(C(=O)N(C)C)nn2c1CN(c1nc(OC[C@@]34CCCN3C[C@H](F)C4)nc3c(F)c(-c4ccc(F)c5sc(N)c(C#N)c45)c(C(F)(F)F)cc13)CC2 (atropisomer, axis not shown; (aS)) [Compound 590, 5-((S)-7-(2-amino-3-cyano-7-fluorobenzo[b]thiophen-4-yl)-8-fluoro-2-(((2R,7aS)-2-fluorotetrahydro-1H-pyrrolizin-7a(5H)-yl)methoxy)-6-(trifluoromethyl)quinazolin-4-yl)-N,N,3-trimethyl-4,5,6,7-tetrahydropyrazolo[1,5-a]pyrazine-2-carboxamide] |  |  |  |  |  | ≤ 0.1 | ≤ 0.1 | ≤ 0.1 | ≤ 0.1 | ≤ 0.1
6 | CC(=O)N1CC[C@@H](N(C)c2nc(OC[C@@]34CCCN3C[C@H](F)C4)nc3c(F)c(-c4ccc(F)c5sc(N)c(C#N)c45)c(C(F)(F)F)cc23)[C@H]1C (single isomer, unassigned) [Compound 193] | ≤ 0.1 | ≤ 0.1 |  | ≤ 0.1 | ≤ 0.1 |  |  |  |  | 
7 | N#Cc1c(N)sc2c(F)ccc(-c3c(C(F)(F)F)cc4c(N5CCOCC5)nc(OC[C@@]56CCCN5C[C@H](F)C6)nc4c3F)c12 (single isomer, unassigned) [Compound 198] | ≤ 0.1 | ≤ 0.1 |  | ≤ 0.1 | ≤ 0.1 |  |  |  |  | 
8 | N#Cc1c(N)sc2c(F)ccc(-c3c(C(F)(F)F)cc4c(N5CC6CC(C5)O6)nc(OC[C@@]56CCCN5C[C@H](F)C6)nc4c3F)c12 (single isomer, unassigned) [Compound 275] | ≤ 0.1 | ≤ 0.1 | > 1 | ≤ 0.1 | ≤ 0.1 |  |  |  |  | 
9 | CN(c1nc(OC[C@@]23CCCN2C[C@H](F)C3)nc2c(F)c(-c3ccc(F)c4sc(N)c(C#N)c34)c(C(F)(F)F)cc12)[C@H]1C[C@@H](O)C1 [Compound 19, 2-amino-7-fluoro-4-((S)-8-fluoro-2-(((2R,7aS)-2-fluorotetrahydro-1H-pyrrolizin-7a(5H)-yl)methoxy)-4-(((1s,3R)-3-hydroxycyclobutyl)(methyl)amino)-6-(trifluoromethyl)quinazolin-7-yl)benzo[b]thiophene-3-carbonitrile] |  |  |  |  |  | ≤ 0.1 | ≤ 0.1 |  | ≤ 0.1 | ≤ 0.1
10 | N#Cc1c(N)sc2c(F)ccc(-c3c(C(F)(F)F)cc4c(N5CC6CC5CO6)nc(OC[C@@]56CCCN5C[C@H](F)C6)nc4c3F)c12 (some centres unmarked) [Compound 147] | ≤ 0.1 |  |  | ≤ 0.1 |  |  |  |  |  | 
11 | N#Cc1c(N)sc2c(F)ccc(-c3c(C(F)(F)F)cc4c(N5CCCOCC5)nc(OC[C@@]56CCCN5C[C@H](F)C6)nc4c3F)c12 [Compound 232] | ≤ 0.1 |  |  | ≤ 0.1 |  |  |  |  |  | 
12 | N#Cc1c(N)sc2c(F)ccc(-c3c(C(F)(F)F)cc4c(N5CCC[C@@H](O)C5)nc(OC[C@@]56CCCN5C[C@H](F)C6)nc4c3F)c12 [Compound 234] | ≤ 0.1 | ≤ 0.1 |  | ≤ 0.1 |  |  |  |  |  | 
13 | C[C@@H]1[C@H](N(C)c2nc(OC[C@@]34CCCN3C[C@H](F)C4)nc3c(F)c(-c4ccc(F)c5sc(N)c(C#N)c45)c(C(F)(F)F)cc23)CCN1C(=O)C1CC1 [Compound 258] |  | ≤ 0.1 |  | ≤ 0.1 |  |  |  |  |  | 
14 | CCC(=O)N1CC[C@@H](N(C)c2nc(OC[C@@]34CCCN3C[C@H](F)C4)nc3c(F)c(-c4ccc(F)c5sc(N)c(C#N)c45)c(C(F)(F)F)cc23)[C@H]1C [Compound 260] | ≤ 0.1 | ≤ 0.1 |  | ≤ 0.1 |  |  |  |  |  | 
15 | CCN(c1nc(OC[C@@]23CCCN2C[C@H](F)C3)nc2c(F)c(-c3ccc(F)c4sc(N)c(C#N)c34)c(C(F)(F)F)cc12)[C@H]1CCN(C(C)=O)C1 [Compound 262] | ≤ 0.1 | ≤ 0.1 | ≤ 0.1 | ≤ 0.1 | ≤ 0.1 |  |  |  |  | 
16 | CCN(c1nc(OC[C@@]23CCCN2C[C@H](F)C3)nc2c(F)c(-c3ccc(F)c4sc(N)c(C#N)c34)c(C(F)(F)F)cc12)[C@@H]1CCN(C(C)=O)C1 [Compound 268] | ≤ 0.1 | ≤ 0.1 | ≤ 0.1 | ≤ 0.1 | ≤ 0.1 |  |  |  |  | 
17 | CCN(c1nc(OC[C@@]23CCCN2C[C@H](F)C3)nc2c(F)c(-c3ccc(F)c4sc(N)c(C#N)c34)c(Cl)cc12)[C@@H]1CCN(C(C)=O)[C@@H]1C [Compound 323] | ≤ 0.1 | ≤ 0.1 |  | ≤ 0.1 | ≤ 0.1 |  |  |  |  | 
18 | CCN(c1nc(OC[C@@]23CCCN2C[C@H](F)C3)nc2c(F)c(-c3ccc(F)c4sc(N)c(C#N)c34)c(C(F)(F)F)cc12)[C@H]1CCN(C(=O)C(C)C)C1 [Compound 332] |  |  | ≤ 0.1 | ≤ 0.1 | ≤ 0.1 | ≤ 0.1 | ≤ 0.1 |  |  | 
19 | CCN(c1nc(OC[C@@]23CCCN2C[C@H](F)C3)nc2c(F)c(-c3ccc(F)c4sc(N)c(C#N)c34)c(Cl)cc12)[C@@H]1CCN(C(=O)C2CC2)[C@@H]1C [Compound 337] | ≤ 0.1 | ≤ 0.1 |  | ≤ 0.1 | ≤ 0.1 |  |  |  |  | 
20 | CN(Cc1cccnc1N)c1nc(OC[C@@]23CCCN2C[C@H](F)C3)nc2c(F)c(-c3ccc(F)c4sc(N)c(C#N)c34)c(C(F)(F)F)cc12 [Compound 390] | ≤ 0.1 | ≤ 0.1 | ≤ 0.1 | ≤ 0.1 | ≤ 0.1 |  |  |  |  | 
21 | CC(=O)N1CC[C@@H](N(C)c2nc(OC[C@@]34CCCN3C[C@H](F)C4)nc3c(F)c(-c4ccc(F)c5sc(N)c(C#N)c45)c(Cl)cc23)[C@H]1C [Compound 398] | ≤ 0.1 | ≤ 0.1 |  | ≤ 0.1 | ≤ 0.1 |  |  |  |  | 
